Data published in ChEMBL document CHEMBL5370573, “Isolation of Hydrazide-alkenes with Different Amino Acid Origins from an Azoxy-alkene-Producing Mutant of Streptomyces rochei 7434AN4” (J Nat Prod, 2023).
In brackets after ≈: the same amount, converted by molar mass.

Experiments:
[1] = Inhibition of quorum sensing system in Chromobacterium violaceum CV026 assessed as reduction in violacein production measured after 24 hrs
[2] = Inhibition of quorum sensing system in Chromobacterium violaceum CV026 assessed as reduction in violacein production at 1 mg/ml measured after 24 hrs relative to control

| Compound | IC50 [1] | inhibition [2] |
| --- | --- | --- |
| CCCC/C=C\[N+]([O-])=N\[C@H](C)[C@H](O)CO | 0.75 mg/mL (≈ 3.47 mM) | – |
| CCCC/C=C\NN(C(C)=O)C(=O)C(C)C | – | 40% |
| CCCC/C=C\NN(C(C)=O)C(=O)C(C)CC (stereo not drawn) | – | 40% |
